PMC5566973 (Frontiers in Pharmacology, 2017)
Where two headings read alike, the source gives them in different places.

Assays:
MRP2 = test: Western blot analysis of MRP2 protein expression in Caco-2 cells; format: cell-based, human
Experimental: The Caco-2 cells were seeded into 6-well plates at a density of 1 × 10^5 cells/mL and cultured for 24 h. […] Protein lysate was collected by centrifugation at 12,000 rpm at 4°C for 10 min, and the total protein content was determined using BCA protein assay kit. Proteins were then mixed with a quarter volume of loading buffer and heated at 100°C for 5 min. Approximately 20 μg of the total protein content was separated by SDS-PAGE through an 8% acrylamide gel and transferred to PVDF membranes. After washing with PBST, the membrane was blocked with 5% fat-free milk in PBST for 1 h at room temperature (RT) and then incubated with anti-MRP2 (1:500) and anti-GAPDH (1:5,000) overnight at 4°C. Afterwards, the membranes were rinsed with PBST and incubated with HRP-conjugated anti-rabbit (1:5,000) secondary antibody for 2 h at RT. After complete washing with PBST, the protein bands were visualized with ECL prime kit (GE Healthcare, NA, UK).

Na+/K+-ATPase = test: Bidirectional transport in MDCK cell monolayers with selective transporter inhibitors or substrates; format: in vitro ADME, canine; settings: dog, with sodium vanadate 0.05 mM (50 μM), + Sodium vanadate 0.05 mM (Na^+)
Experimental: (§1) Caco-2, MDCK and MDCK-MRP2 cells were donated by Prof. Yan Xie and Yueming Ma from Shanghai University of Traditional Chinese Medicine. The cells were grown in culture dishes (Corning® Costar, Cambridge, MA, USA) using DMEM supplemented with 10% FBS, 1% NEAA and 1% penicillin-streptomycin solution. The cells were cultured in 5% CO2 and […] with 90% relative humidity at 37°C. The medium was replaced every other day during incubation. The cells were passaged every 3–4 days between 70 and 80% confluence at a 1:5 split ratio using 0.25% trypsin-EDTA. For the transport experiments, the cells from passages between 30 and 45 were seeded at 1 × 10^5 cells/cm^2 onto permeable polycarbonate inserts (0.45 μm pore size, seeding surface of 0.6 cm^2, Millipore, MA, USA) in 24-well plastic plates. The media in the culture plates were changed every other day for the first week after seeding and were replaced daily afterward. […] The cells were used for the transport experiments 21–28 (Caco-2) or 5–7 (MDCK and MDCK-MRP2) days after seeding, and only monolayers with a TEER-value above 420 Ω cm^2 were used during the studies.
(§2) The apical (AP) and basolateral (BL) sides are typical of polarized Caco-2, MDCK and MDCK-MRP2 epithelial cells. Before the experiments, the polarized cell monolayers were washed twice with warm HBSS solution and subsequently preincubated (37°C, 30 min). Afterward, HBSS solution on both sides of the cell monolayers was removed using a mini desktop vacuum pump. […] The final DMSO concentration in the HBSS or drug mixture was below 0.5%. The monolayers were incubated at 37°C, and 100 μL samples were taken at 30, 60, 90, and 120 min from the acceptor compartment and immediately replaced with the same volume of prewarmed fresh blank HBSS. TEER measurements for assessing the membrane integrity took place before and after the experiments.
(§3) The apparent permeability coefficients (Papp) and ER were calculated as Equations (2) and (3): […]
(§4) where dQ/dt is the steady-state flux, A is the membrane surface area, and C0 is the initial drug concentration in the donor compartment. PappBA is the Papp-value measured in BL to AP direction and PappAB is the Papp-value measured in AP to BL direction. It indicated the involvement of an active transport process when the ER-value is above 1.5 (Hubatsch et al., [2007]).

BCRP = test: as above; format: in vitro ADME, canine; settings: dog; for efflux ratio at 120 min, 2 μM: read-out: ER
Experimental: as §1, §2, §3, §4

[1] = Pharmacokinetics in rats after intravenous and intragastric administration; settings: for bioavailability: F%
Experimental: Fifty-six pathogen-free Sprague-Dawley adult rats comprising 28 males and 28 females (weighing within the range of 200–250 g) were obtained from Drug Safety Evaluation and Research Center of Shanghai University of Traditional Chinese Medicine. Animals were raised under an environmentally controlled breeding room for 7 days before commencing the experiments. Animals were housed in a well-lighted air-conditioned room (25 ± 1°C) under standard environmental conditions (12 h light-dark cycles) and given free access to rodent chow and tap water prior to the study. Rats were fasted for 12 h and provided free access to water prior to the experiments. All animal-use procedures were in accordance with the regulations for animal experimentation issued by the State Committee of Science and Technology of the People's Republic of China on 14 November 1988 and approved by the Animal Ethics Committee of Shanghai University of Traditional Chinese Medicine (No. SUTCM-2011-1107; Approval date: 10 November, 2011).
Forty rats with 20 males and 20 females were randomly divided into five groups of eight rats in each. […] Approximately 0.25 mL of blood sample was collected from the angular vein of each conscious rat and transferred into heparinized tubes at 0 (predose), 0.03, 0.08, 0.25, 0.5, 0.75, 1.0, 2.0, 4.0, 8.0, 12.0, and 24.0 h after administration. Rats had free access to water after 4.0 h of blood sample collection. Serial blood samples were immediately centrifuged at 3,000 rpm for 15 min, and 100 μL of the supernatant plasma layer was transferred into another new 1.5 mL centrifuge tube and stored at −80°C until analysis.
The maximum peak concentration (Cmax) and time of maximum plasma concentration (Tmax) were obtained directly from the observed concentration vs. time data.
(5) F=(AUC0−∞,oral×Doseiv)/(AUC0−∞,iv×Doseoral)×100%

[2] = with Ko143 0.01 mM (10 μM), + Ko143 0.01 mM (BCRP)
[3] = with apigenin 0.025 mM (25 μM), + Apigenin 0.025 mM (BCRP)
[4] = both, Sprague-Dawley, rat, in vivo, iv, 3.3 mg/kg
[5] = both, Sprague-Dawley, rat, in vivo, iv, 3.3 mg/kg, rats, i.v. 3.3 mg/kg
[6] = both, Sprague-Dawley, rat, in vivo, po, 40 mg/kg
[7] = both, Sprague-Dawley, rat, in vivo, po, 40 mg/kg, rats, harmine p.o. 40.0 mg/kg co-administered with probenecid 20.0 mg/kg
[8] = both, Sprague-Dawley, rat, in vivo, po, 40 mg/kg, rats, p.o. 40.0 mg/kg
[9] = both, Sprague-Dawley, rat, in vivo, po, 40 mg/kg, rats, p.o. 40.0 mg/kg vs i.v. 3.3 mg/kg
[10] = rats, harmine p.o. 40.0 mg/kg co-administered with probenecid 20.0 mg/kg

| Compound | Papp A→B at 120 min, 2 μM (Na+/K+-ATPase) [×10⁻⁶ cm/s] | Papp B→A at 120 min, 2 μM (Na+/K+-ATPase) [×10⁻⁶ cm/s] | Papp B→A at 120 min, 2 μM (BCRP; [3]) [×10⁻⁶ cm/s] | Vd [1, 4] [L/kg] | clearance [1, 4] [mL/min/kg] | k el [1, 4] [s⁻¹] | AUC(0-t) [1, 5] [ng·h/mL] | AUC(0-inf) [1, 5] [ng·h/mL] | Cmax [1, 5] [ng/mL] | MRT [1, 5] [h] | Tmax [1, 5] [h] | k el [1, 6] [s⁻¹] | AUC(0-t) [1, 8] [ng·h/mL] | AUC(0-inf) [1, 8] [ng·h/mL] | Cmax [1, 8] [ng/mL] | bioavailability [1, 9] [%] | MRT [1, 8] [h] | Tmax [1, 8] [h] | Ka ([1]; rats, i.v. 3.3 mg/kg) [h⁻¹] | CL ([1]; rats, p.o. 40.0 mg/kg) [mL/min/kg] | other results |
| --- | --- | --- | --- | --- | --- | --- | --- | --- | --- | --- | --- | --- | --- | --- | --- | --- | --- | --- | --- | --- | --- |
| COc1ccc2c(c1)[nH]c1c(C)nccc12 [Harmine] | 3.87 ± 0.27 | 5.22 ± 0.97 | 6.83 ± 1.01 | 10.4 ± 5.75 | 40.8 | 8.33e-05 | 1260 ± 238 | 1270 ± 239 | 2320 ± 663 | 1.01 ± 0.3 | 0.03 | 1.39e-05 | 154 ± 46.5 | 184 ± 57.4 | 67 ± 34.3 | 1.09 ± 0.27 | 4.41 ± 1.03 | 0.56 ± 0.13 | 2.71 ± 1.24 | 3890.6588 ± 936.7433 | effect on the expression of MRP2 (MRP2; 48 h, 2 and 5 μM, compared with the control group): slightly up-regulate; Papp B→A at 120 min, 2 μM (BCRP; [2]): 7.05 ± 0.16 ×10⁻⁶ cm/s; AUC(0-t) [1, 7]: 292 ± 70.4 ng·h/mL; AUC(0-inf) [1, 7]: 349 ± 76.7 ng·h/mL; Cmax [1, 7]: 98.9 ± 31.1 ng/mL; bioavailability [1, 7]: 2.14 ± 0.59%; MRT [1, 7]: 13.7 ± 3.54 h; Tmax [1, 7]: 0.79 ± 0.12 h; increase of F-value after probenecid co-administration ([1]; rats, harmine p.o. 40.0 mg/kg + probenecid 20.0 mg/kg vs harmine alone): 1.96 folds; CL [1, 10]: 1966.7387 ± 409.9968 mL/min/kg; Ka [1, 10]: 0.73 ± 0.46 h⁻¹; Vd [1, 10]: 2464.53513 ± 990.15463 L/kg; Ka ([1]; rats, p.o. 40.0 mg/kg): 0.63 ± 0.42 h⁻¹; Vd ([1]; rats, p.o. 40.0 mg/kg): 4761.64239 ± 1571.7721 L/kg |
| COc1ccc2c3c([nH]c2c1)C(C)=NCC3 [Harmaline] | 16.2 ± 1.45 | 20.4 ± 0.22 | 23.7 ± 1.11 | 94.1 ± 102 | 173 | 6.39e-05 | 299 ± 64.3 | 307 ± 64.3 | 258 ± 64.9 | 2.53 ± 1.42 | 0.03 | 5.56e-05 | 644 ± 328 | 666 ± 322 | 118 ± 59 | 17.1 ± 10.1 | 6.24 ± 3.18 | 1.76 ± 1.11 | 1.26 ± 0.83 | 1244.488 ± 688.6782 | effect on the expression of MRP2 (MRP2; 48 h, 1, 2, and 5 μM): no effect; efflux ratio at 120 min, 2 μM (Na+/K+-ATPase; read-out: ER): 1.26; efflux ratio at 120 min, 2 μM (BCRP; [2]): 1.16; efflux ratio at 120 min, 2 μM (BCRP; [3]): 1.16; T1/2a ([1]; rats, i.v. 3.3 mg/kg): 1.24 ± 1.02 h; T1/2e ([1]; rats, i.v. 3.3 mg/kg): 4.05 ± 1.39 h; T1/2d ([1]; rats, i.v. 3.3 mg/kg): 1.57 ± 1.25 h; Ka ([1]; rats, p.o. 40.0 mg/kg): 0.71 ± 0.38 h⁻¹; T1/2a ([1]; rats, p.o. 40.0 mg/kg): 1.74 ± 1.13 h; T1/2e ([1]; rats, p.o. 40.0 mg/kg): 5.13 ± 1.52 h; T1/2d ([1]; rats, p.o. 40.0 mg/kg): 2.40 ± 1.20 h; Vd ([1]; rats, p.o. 40.0 mg/kg): 705.97445 ± 595.53126 L/kg |
